According to US20040043959A1, “Combination therapies for treating methylthioadenosine phosphorylase deficient cells” (priority 2002, published 2004):

Biological target: T1, Human MTAP (Homo sapiens, UniProt Q13126)
T1 construct: six-histidine tag (His6) (N); made in house; host or cells: E. coli BL21 DE3
T1 sequence (Q13126 1-283): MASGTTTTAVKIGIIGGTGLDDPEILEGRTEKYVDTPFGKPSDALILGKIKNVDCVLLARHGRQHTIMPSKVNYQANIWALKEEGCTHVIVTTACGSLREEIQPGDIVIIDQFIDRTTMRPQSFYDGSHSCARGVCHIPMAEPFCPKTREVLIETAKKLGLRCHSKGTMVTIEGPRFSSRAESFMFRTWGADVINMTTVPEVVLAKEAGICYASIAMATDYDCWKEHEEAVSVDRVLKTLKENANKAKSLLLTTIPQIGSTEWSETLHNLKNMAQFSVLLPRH
Assay: MTAP substrate assay, coupled spectrophotometric (adenine, xanthine oxidase)
Type: biochemical
Conditions: 2 nM MTAP; for activity at 50 µM: 10 min, compound 50 uM, relative to MTA at 50 uM, read-out: MT-A—50: initial velocity as a percentage of the initial velocity with MTA as substrate; for MT-A—10: initial velocity as a percentage of the initial velocity with MTA as substrate: compound 10 uM, relative to MTA at 10 uM
Procedure, shortened: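 Detection was xanthine oxidase-coupled (0.8 units/ml), reading adenine-derived absorbance at 305 nm over 10 min in potassium phosphate/DTT buffer at 37° C, with N-His6 enzyme purified from E. coli.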

Row | SMILES | activity at 50 µM | MT-A—10: initial velocity as a percentage of the initial velocity with MTA as substrate
1 | COc1ccc2[nH]c(SC[C@H]3O[C@@H](n4cnc5c(N)ncnc54)[C@H](O)[C@@H]3O)nc2c1 [2(G)(118), (2R, 3R, 4S, 5S)-2-(6-amino-9H-purin-9-yl)-5-{[(5-methoxy-1H-benzimidazol-2-yl)thio]methyl}tetrahydrofuran-3,4-diol] | 2.5% | 2.5%
2 | Nc1ncnc2c1ncn2[C@@H]1O[C@H](CSc2nc3ccccc3[nH]2)[C@@H](O)[C@H]1O [2(G)(119), (2R, 3R, 4S, 5S)-2-(6-amino-9H-purin-9-yl)-5-[(1H-benzimidazol-2-ylthio)methyl)tetrahydro-furan-3,4-diol] | 26% | 12%
3 | Cn1ccnc1SC[C@H]1O[C@@H](n2cnc3c(N)ncnc32)[C@H](O)[C@@H]1O [2(G)(120), (2R, 3R, 4S, 5S)-2-(6-amino-9H-purin-9-yl)-5-{[(1-methyl-1H-imidazol-2-yl)thio)methyl}tetra-hydrofuran-3,4-diol] | 3% | 1%
4 | CCCCCCCCCSC[C@H]1O[C@@H](n2cnc3c(N)ncnc32)[C@H](O)[C@@H]1O [2(G)(121), (2R, 3R, 4S, 5S)-2-(6-amino-9H-purin-9-yl)-5-[(nonylthio)methyl]tetra-hydrofuran-3,4-diol] | 54.5% | 64.5%
5 | Nc1ncnc2c1ncn2[C@@H]1O[C@H](CSc2nc3ccccc3o2)[C@@H](O)[C@H]1O [2(G)(122), (2R, 3R, 4S, 5S)-2-(6-amino-9H-purin-9-yl)-5-[(1,3-benzoxazol-2-ylthio)-methyl]tetrahydrofuran-3,4-diol] | 37% | 30.5%
6 | Nc1ncnc2c1ncn2[C@@H]1O[C@H](CSC[C@@H]2NC(=O)NC2=O)[C@@H](O)[C@H]1O [2(G)(123), (5R)-5-[({[(2S, 3S, 4R, 5R)-5-(6-amino-9H-purin-9-yl)-3,4-dihydroxytetra-hydrofuran-2-yl)methyl}thio)methyl]imidazo-lidine-2,4-dione] | 22% | 23%
7 | Nc1ncnc2c1ncn2[C@@H]1O[C@H](CSCc2ccc(Cl)cc2)[C@@H](O)[C@H]1O [2(G)(124), (2R, 3R, 4S, 5S)-2-(6-amino-9H-purin-9-yl)-5-[{(4-chlorobenzyl)thio]-methyl}tetrahydrofuran-3,4-diol] | 51% | 47%
8 | CCCCCCCSC[C@H]1O[C@@H](n2cnc3c(N)ncnc32)[C@H](O)[C@@H]1O [2(G)(125), (2R, 3R, 4S, 5S)-2-(6-amino-9H-purin-9-yl)-5-[(heptylthio)methyl]-tetrahydrofuran-3,4-diol] | 62.5% | 101%
9 | CCCCCCSC[C@H]1O[C@@H](n2cnc3c(N)ncnc32)[C@H](O)[C@@H]1O [2(G)(126), (2R, 3R, 4S, 5S)-2-(6-amino-9H-purin-9-yl)-5-[(hexylthio)methyl]tetra-hydrofuran-3,4-diol] | 67.5% | 72%
10 | Nc1ncnc2c1ncn2[C@@H]1O[C@H](CSCc2ccccc2F)[C@@H](O)[C@H]1O [2(G)(127), (2R, 3R, 4S, 5S)-2-(6-amino-9H-purin-9-yl)-5-{[(2-fluorobenzyl)-thio]methyl}tetrahydro-furan-3,4-diol] | 58.5% | 56%
11 | Nc1ncnc2c1ncn2[C@@H]1O[C@H](CSc2ccc(Cl)c(Cl)c2)[C@@H](O)[C@H]1O [2(G)(128), (2R, 3R, 4S, 5S)-2-(6-amino-9H-purin-9-yl)-5{[(3,4-dichlorophenyl)-thio]methyl}tetrahydro-furan-3,4-diol] | 10.5% | 11%
12 | CCCCCCCCCCSC[C@H]1O[C@@H](n2cnc3c(N)ncnc32)[C@H](O)[C@@H]1O [2(G)(129), (2R, 3R, 4S, 5S)-2-(6-amino-9H-purin-9-yl)-5-[(decylthio)methyl]tetra-hydrofuran-3,4-diol] | 41.5% | 46%
13 | Nc1ncnc2c1ncn2[C@@H]1O[C@H](CSc2ccc(Cl)cc2Cl)[C@@H](O)[C@H]1O [2(G)(130), (2R, 3R, 4S, 5S)-2-(6-amino-9H-purin-9-yl)-5-{[(2,4-dichlorophenyl)-thio]methyl}tetrahydro-furan-3,4-diol] | 4.5% | −2%
14 | Nc1ncnc2c1ncn2[C@@H]1O[C@H](CSc2cc(Cl)cc(Cl)c2)[C@@H](O)[C@H]1O [2(G)(131), (2R, 3R, 4S, 5S)-2-(6-amino-9H-purin-9-yl)-5-{[(3,5-dichlorophenyl)-thio]methyl}tetrahydro-furan-3,4-diol] | 11% | 11.5%
15 | CCOC(=O)c1c[nH]c(SC[C@H]2O[C@@H](n3cnc4c(N)ncnc43)[C@H](O)[C@@H]2O)n1 [2(G)(132), Ethyl 2-({[(2S, 3S, 4R, 5R)-5-(6-amino-9H-purin-9-yl)-3,4-dihydroxytetra-hydrofuran-2-yl]methyl}thio)-1H-imidazole-4-carboxylate] | 1.5% | 0%
16 | CCCCOC(=O)CSC[C@H]1O[C@@H](n2cnc3c(N)ncnc32)[C@H](O)[C@@H]1O [2(G)(133), Butyl ({[(2S, 3S, 4R, 5R)-5-(6-amino-9H-purin-9-yl)-3,4-dihydroxytetra-hydrofuran-2-yl]methyl}-thio)acetate] | 31.5% | 22.5%
17 | CCCCNCCSC[C@H]1O[C@@H](n2cnc3c(N)ncnc32)[C@H](O)[C@@H]1O [2(G)(136), (2R, 3R, 4S, 5S)-2-(6-amino-9H-purin-9-yl)-5-({[2-(butylamino)-ethyl]thio}methyl)-tetrahydrofuran-3,4-diol] | 37.5% | 18%
18 | Cc1cc(C)c(CSC[C@H]2O[C@@H](n3cnc4c(N)ncnc43)[C@H](O)[C@@H]2O)c(C)c1 [2(G)(137), (2R, 3R, 4S, 5S)-2-(6-amino-9H-purin-9-yl)-5-{[(mesitylmethyl)thio]-methyl}tetrahydrofuran-3,4-diol] | 2% | 3.5%
19 | Nc1ncnc2c1ncn2[C@@H]1O[C@H](CSc2nc(-c3ccccc3)cs2)[C@@H](O)[C@H]1O [2(G)(138), (2R, 3R, 4S, 5S)-2-(6-amino-9H-purin-9-yl)-5-{[(4-phenyl-1,3-thiazol-2-yl)thio]methyl}-tetrahydrofuran-3,4-diol] | 12.5% | 9%
20 | CCCCOC(=O)CCSC[C@H]1O[C@@H](n2cnc3c(N)ncnc32)[C@H](O)[C@@H]1O [2(G)(139), Butyl 3-({[(2S, 3S, 4R, 5R)-5-(6-amino-9H-purin-9-yl)-dihydroxytetrahydro-furan-2-yl]methyl}thio)-propanoate] | 30% | 26.5%
21 | CCOC(=O)C(C)SC[C@H]1O[C@@H](n2cnc3c(N)ncnc32)[C@H](O)[C@@H]1O (stereo partly drawn) [2(G)(140), Ethyl 2-({[(2S, 3S, 4R, 5R)-5-(6-amino-9H-purin-9-yl)-3,4-dihydroxytetra-hydrofuran-2-yl]methyl}-thio)-propanoate] | 7.5% | 3%
22 | CC(O)CSC[C@H]1O[C@@H](n2cnc3c(N)ncnc32)[C@H](O)[C@@H]1O (stereo partly drawn) [2(G)(141), (2R, 3R, 4S, 5S)-2-(6-amino-9H-purin-9-yl)-5-{[(2-hydroxypropyl)-thio]methyl}tetrahydro-furan-3,4-diol] | 27% | 10%
23 | CCCCCCCCSC[C@H]1O[C@@H](n2cnc3c(N)ncnc32)[C@H](O)[C@@H]1O [2(G)(142), (2R, 3R, 4S, 5S)-2-(6-amino-9H-purin-9-yl)-5-[(octylthio)methyl]tetra-hydrofuran-3,4-diol] | 58% | 1.5%
24 | CC(O)C(C)SC[C@H]1O[C@@H](n2cnc3c(N)ncnc32)[C@H](O)[C@@H]1O (stereo partly drawn) [2(G)(144), (2R, 3R, 4S, 5S)-2-(6-amino-9H-purin-9-yl)-5-{[(2-hydroxy-1-methyl-propyl)thio]methyl}tetra-hydrofuran-3,4-diol] | 7.5% | 18%
25 | Nc1ncnc2c1ncn2[C@@H]1O[C@H](CSCc2ccc(Cl)c(Cl)c2)[C@@H](O)[C@H]1O [2(G)(145), (2R, 3R, 4S, 5S)-2-(6-amino-9H-purin-9-yl)-5-{[(3,4-dichlorobenzyl)-thio]methyl}tetrahydro-furan-3,4-diol] | 16% | 3.5%
26 | CC(C)c1ccccc1SC[C@H]1O[C@@H](n2cnc3c(N)ncnc32)[C@H](O)[C@@H]1O [2(G)(146), (2R, 3R, 4S, 5S)-2-(6-amino-9H-purin-9-yl)-5-{[(2-isopropylphenyl)-thio]methyl}tetrahydro-furan-3,4-diol] | 2% | 28%
